Structures are written as SMILES. Where a name gives a salt, the structure may show the parent alone.

Chain of PD-1/PD-L1 (Q9NZQ7 18-239): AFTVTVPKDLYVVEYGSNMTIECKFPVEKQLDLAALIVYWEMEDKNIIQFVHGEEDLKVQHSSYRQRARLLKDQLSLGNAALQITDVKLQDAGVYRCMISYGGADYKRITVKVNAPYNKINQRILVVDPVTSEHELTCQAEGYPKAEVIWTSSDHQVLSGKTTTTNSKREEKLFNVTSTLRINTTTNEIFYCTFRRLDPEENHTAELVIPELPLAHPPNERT

This assay concerns the target PD-1/PD-L1 (Homo sapiens (Human), UniProt Q9NZQ7). The assay is described as follows: PD-1/PD-L1 Homogenous Time-Resolved Fluorescence (HTRF) binding assay. The conditions noted are these: PD-1-Ig (20 nM final)/PD-L1-His (10 nM final) binding assay. An excerpt: The ability of the compounds of the invention to bind to PD-L1 was investigated using a PD-1/PD-L1 Homogenous Time-Resolved Fluorescence (HTRF) binding assay.
The interaction of PD-1 and PD-L1 can be assessed using soluble, purified preparations of the extracellular domains of the two proteins. The PD-1 and PD-L1 protein extracellular domains were expressed as fusion proteins with detection tags, for PD-1, the tag was the Fc portion of Immunoglobulin (PD-1-Ig) and for PD-L1 it was the 6 histidine motif (PD-L1-His). All binding studies were performed in an HTRF assay buffer consisting of dPBS supplemented with 0.1% […] bovine serum albumin and 0.05% (v/v) Tween-20. For the h/PD-L1-His binding assay, inhibitors were pre-incubated with PD-L1-His (10 nM final) for 15m in 4 μl of assay buffer, followed by addition of PD-1-Ig (20 nM final) in 1 μl of assay buffer and further incubation for 15 m. HTRF detection was achieved using europium crypate-labeled anti-Ig (1 nM final) and allophycocyanin (APC) labeled anti-His (20 nM final). Antibodies were diluted in HTRF detection buffer and 5 μl was dispensed on top of the binding reaction. The reaction mixture was allowed to equilibrate for 30 minutes and the resulting signal (665 nm/620 nm ratio) was obtained using an EnVision fluorometer. Additional binding assays were established between the human proteins PD-1-Ig/PD-L2-His (20 & 5 nM, respectively) and CD80-His/PD-L1-Ig (100 & 10 nM, respectively).
Recombinant Proteins: Human PD-1 (25-167) with a C-terminal human Fc domain of immunoglobulin G (Ig) epitope tag [hPD-1 (25-167)-3S-IG] and human PD-L1 (18-239) with a C-terminal His epitope tag [hPD-L1(18-239)-TVMV-His] were expressed in HEK293T cells and purified sequentially by ProteinA affinity chromatography and size exclusion chromatography. Human PD-L2-His and CD80-His was obtained through commercial sources.
Homogenous Time-Resolved Fluorescence (HTRF) Assays of Binding of Soluble PD-1 to Soluble PD-L1. Soluble PD-1 and soluble PD-L1 refers to proteins with carboxyl-end truncations that remove the transmembrane-spanning regions and are fused to heterologous sequences, specifically the Fc portion of the human immunoglobuling G sequence (Ig) or the hexahistidine epitope tag (His). All binding studies were performed in an HTRF assay buffer consisting of dPBS supplemented with 0.1% (w/v) bovine serum albumin and 0.05% (v/v) Tween-20. For the PD-1-Ig/PD-L1-His binding assay, inhibitors were pre-incubated with PD-L1-His (10 nM final) for 15m in 4 μl of assay buffer, followed by addition of PD-1-Ig (20 nM final) in 1 μl of assay buffer and further incubation for 15 m. PD-L1 fusion proteins from either human, cynomologous macaques, mouse, or other species were used. HTRF detection was achieved using europium crypate-labeled anti-Ig monoclonal antibody (1 nM final) and allophycocyanin (APC) labeled anti-His monoclonal antibody (20 nM final). Antibodies were diluted in HTRF detection buffer and 5 μl was dispensed on top of binding reaction. The reaction was allowed to equilibrate for 30 minutes and signal (665 nm/620 nm ratio) was obtained using an EnVision fluorometer. Additional binding assays were established between PD-1-Ig/PD-L2-His (20 and 5 nM, respectively), CD80-His/PD-L1-Ig (100 and 10 nM, respectively) and CD80-His/CTLA4-Ig (10 and 5 nM, respectively).
Recombinant Proteins. Carboxyl-truncated human PD-1 (amino acids 25-167) with a C-terminal human Ig epitope tag [hPD-1 (25-167)-3S-IG] and human PD-L1 (amino acids 18-239) with a C-terminal His epitope tag [hPD-L1(19-239)-tobacco vein mottling virus protease cleavage site (TVMV)-His] were expressed in HEK293T cells and purified sequentially by recombinant Protein A affinity chromatography and size exclusion chromatography. Human PD-L2-His (Sino Biologicals), CD80-His (Sino Biologicals), CTLA4-Ig (RnD Systems) were all obtained through commercial sources.
Background: Time-resolved FRET reads energy transfer from a long-lived donor to a nearby acceptor.
Take `Cc1c(COc2cc(OCc3cncc(S(=O)(=O)NCCC(=O)O)c3)c(CN[C@@](C)(CO)C(=O)O)cc2Cl)cccc1-c1ccc2c(c1)OCCO2` [Example 1020, (S)-2-((2-((5-(N-(2-Carboxyethyl)sulfamoyl)pyridin-3-yl)methoxy)-5-chloro-4-((3-(2,3-dihydrobenzo[b]1[1,4]dioxin-6-yl)-2-methylbenzyl)oxy)benzyl)amino)-3-hydroxy-2-methylpropanoic acid]: the half-maximal inhibitory concentration (IC50) (as a rule, the point on the concentration scale where inhibition reaches its midpoint) is 3.1 nM.

`Cc1c(COc2cc(OCCN3CCC(O)(C(=O)O)CC3)c(CN[C@](C)(CO)C(=O)O)cc2Cl)cccc1-c1ccc2c(c1)OCCO2` [Example 1055, (R)-1-(2-(2-(((2-Carboxy-1-hydroxypropan-2-yl)amino)methyl)-4-chloro-5-((3-(2,3-dihydrobenzo[b]1[1,4]dioxin-6-yl)-2-methylbenzyl)oxy)phenoxy)ethyl)-4-hydroxypiperidine-4-carboxylic acid] had an IC50 of 0.4 nM.

In the case of `Cc1c(COc2cc(OCCCN(C)C)c(CN[C@@](C)(CO)C(=O)O)cc2Cl)cccc1-c1ccc2c(c1)OCCO2` [Example 2001, (S)-2-((5-chloro-4-((3-(2,3-dihydrobenzo[b][1,4]dioxin-6-yl)-2-methylbenzyl)oxy)-2-(3-(dimethylamino)propoxy)benzyl)amino)-3-hydroxy-2-methylpropanoic acid], the IC50 was found to be 9.5 nM.

Turning to `Cc1c(COc2cc(OCc3cncc(C(=O)N[C@@H](CCCNC(=N)N)C(=O)O)c3)c(CN3CC[C@H](O)C3)cc2Cl)cccc1-c1ccc2c(c1)OCCO2` [Example 2010, (S)-2-(5-((4-chloro-5-((3-(2,3-dihydrobenzo[b][1,4]dioxin-6-yl)-2-methylbenzyl)oxy)-2-(((S)-3-hydroxypyrrolidin-1-yl)methyl)phenoxy)methyl)nicotinamido)-5-guanidinopentanoic acid], the IC50 amounted to 6.5 nM.

In turn, `Cc1c(COc2cc(OCc3cccc(-c4nc(CC(=O)O)cs4)c3)c(CN[C@@](C)(CO)C(=O)O)cc2Cl)cccc1-c1ccc2c(c1)OCCO2` [Example 1013, (S)-2-((2-((3-(4-(Carboxymethyl)thiazol-2-yl)benzyl)oxy)-5-chloro-4-((3-(2,3-dihydrobenzo[b][1,4]dioxin-6-yl)-2-methylbenzyl)oxy)benzyl)amino)-3-hydroxy-2-methylpropanoic acid] came in with an IC50 of 72 nM.

`Cc1c(COc2cc(OCCN3CCCC(O)(C(F)(F)F)C3)c(CNC(C)(CO)CO)cc2Cl)cccc1-c1ccc2c(c1)OCCO2` (centres unmarked) [Example 1059, 2-((5-Chloro-4-((3-(2,3-dihydrobenzo[b][1,4]dioxin-6-yl)-2-methylbenzyl)oxy)-2-(2-(3-hydroxy-3-(trifluoromethyl)piperidin-1-yl)ethoxy)benzyl)amino)-2-methylpropane-1,3-diol] displayed an IC50 of 2.2 nM.

With `Cc1c(COc2cc(OCc3cccc(-c4nc(CC(=O)O)co4)c3)c(CN[C@@](C)(CO)C(=O)O)cc2Cl)cccc1-c1ccc2c(c1)OCCO2` [Example 1015, (S)-2-((2-((3-(4-(Carboxymethyl)oxazol-2-yl)benzyl)oxy)-5-chloro-4-((3-(2,3-dihydrobenzo[b][1,4]dioxin-6-yl)-2-methylbenzyl)oxy)benzyl)amino)-3-hydroxy-2-methylpropanoic acid], the IC50 is 68.4 nM.

For the molecule `Cc1c(COc2cc(OCC3CCOCC3)c(CN3CCCC[C@H]3C(=O)O)cc2Cl)cccc1-c1ccc2c(c1)OCCO2` [Example 1046, (S)-1-(5-Chloro-4-((3-(2,3-dihydrobenzo[b][1,4]dioxin-6-yl)-2-methylbenzyl)oxy)-2-((tetrahydro-2H-pyran-4-yl)methoxy)benzyl)piperidine-2-carboxylic acid], the IC50 turned out to be 7 nM.

For the molecule `Cc1c(COc2cc(OCCN3CCCC(O)(C(F)(F)F)C3)c(CN3CCCC[C@H]3C(=O)O)cc2Cl)cccc1-c1ccc2c(c1)OCCO2` (stereo partly drawn) [Example 1058, (2S)-1-(5-Chloro-4-((3-(2,3-dihydrobenzo[b][1,4]dioxin-6-yl)-2-methylbenzyl)oxy)-2-(2-(3-hydroxy-3-(trifluoromethyl)piperidin-1-yl)ethoxy)benzyl)piperidine-2-carboxylic acid], the IC50 worked out at 21.8 nM.

In turn, `Cc1c(COc2cc(OCCN3CC[C@@H](O)C3)c(CNC(C)(CO)CO)cc2Cl)cccc1-c1ccc2c(c1)OCCO2` [Example 1024, (R)-2-((5-Chloro-4-((3-(2,3-dihydrobenzo[b][1,4]dioxin-6-yl)-2-methylbenzyl)oxy)-2-(2-(3-hydroxypyrrolidin-1-yl)ethoxy)benzyl)amino)-2-methylpropane-1,3-diol] showed an IC50 of 0.5 nM.

For `Cc1c(COc2cc(OCC3CCCN(C)C3)c(CN[C@@H](CO)C(=O)O)cc2Cl)cccc1-c1ccc2c(c1)OCCO2` (stereo partly drawn) [Example 2004, (2S)-2-((5-chloro-4-((3-(2,3-dihydrobenzo[b][1,4]dioxin-6-yl)-2-methylbenzyl)oxy)-2-((1-methylpiperidin-3-yl)methoxy)benzyl)amino)-3-hydroxypropanoic acid], the IC50 was found to be 5.8 nM.

On to `Cc1c(COc2cc(OCC3CNCCO3)c(CN3CCCC[C@H]3C(=O)O)cc2Cl)cccc1-c1ccc2c(c1)OCCO2` (stereo partly drawn) [Example 2011, (2S)-1-(5-Chloro-4-((3-(2,3-dihydrobenzo[b][1,4]dioxin-6-yl)-2-methylbenzyl)oxy)-2-(morpholin-2-ylmethoxy)benzyl)piperidine-2-carboxylic acid acetic acid salt], for which the IC50 came out at 26.5 nM.

The molecule `Cc1c(COc2cc(OCC3CCC3)c(CNC(C)(CO)CO)cc2Cl)cccc1-c1ccc2c(c1)OCCO2` [Example 1049, 2-((5-Chloro-2-(cyclobutylmethoxy)-4-((3-(2,3-dihydrobenzo[b][1,4]dioxin-6-yl)-2-methylbenzyl)oxy)benzyl)amino)-2-methylpropane-1,3-diol] yielded an IC50 of 14.2 nM.

The molecule `Cc1c(COc2cc(OCC3CCOCC3)c(CNC(C)(CO)CO)cc2Cl)cccc1-c1ccc2c(c1)OCCO2` [Example 1047, 2-((5-Chloro-4-((3-(2,3-dihydrobenzo[b][1,4]dioxin-6-yl)-2-methylbenzyl)oxy)-2-((tetrahydro-2H-pyran-4-yl)methoxy)benzyl)amino)-2-methylpropane-1,3-diol] showed an IC50 of 5.4 nM.

`Cc1c(COc2cc(OCc3cncc(S(=O)(=O)CCC(=O)O)c3)c(CN3CCCC[C@H]3C(=O)O)cc2Cl)cccc1-c1ccc2c(c1)OCCO2` [Example 1012, (S)-1-(2-((5-((2-Carboxyethyl)sulfonyl)pyridin-3-yl)methoxy)-5-chloro-4-((3-(2,3-dihydrobenzo[b]1[1,4]dioxin-6-yl)-2-methylbenzyl)oxy)benzyl)piperidine-2-carboxylic acid] displayed an IC50 of 3 nM.

`Cc1c(COc2cc(OCc3cnn(CC(=O)OC(C)(C)C)c3)c(CN[C@@](C)(CO)C(=O)O)cc2Cl)cccc1-c1ccc2c(c1)OCCO2` [Example 1009, (S)-2-((2-((1-(2-(tert-Butoxy)-2-oxoethyl)-1H-pyrazol-4-yl)methoxy)-5-chloro-4-((3-(2,3-dihydrobenzo[b][1,4]dioxin-6-yl)-2-methylbenzyl)oxy)benzyl)amino)-3-hydroxy-2-methylpropanoic acid]: the IC50 came to 43.7 nM.

For `Cc1c(COc2cc(OCCN3CCOCC3)c(CNC(C)(CO)CO)cc2Cl)cccc1-c1ccc2c(c1)OCCO2` [Example 1039, 2-((5-Chloro-4-((3-(2,3-dihydrobenzo[b][1,4]dioxin-6-yl)-2-methylbenzyl)oxy)-2-(2-morpholinoethoxy)benzyl)amino)-2-methylpropane-1,3-diol], the IC50 is 2.3 nM.
